Tests used:
Alternaria solani = Alternaria solani / tomato / leaf disc (early blight); format: in vivo; settings: foliar, inoculated 2 days after application, vs untreated control
Method: Example B1: Alternaria solani/Tomato/Leaf Disc (Early Blight) Tomato leaf disks cv. Baby are placed on agar in multiwell plates (24-well format) and sprayed with the formulated test compound diluted in water. The leaf disks are inoculated with a spore suspension of the fungus 2 days after application. The inoculated leaf disks are incubated at 23° C./21° C. (day/night) and 80% relative humidity under a light regime of 12 h/12 h (light/dark) in a climate cabinet and the activity of a compound is assessed as percent disease control compared to untreated when an appropriate level of disease damage appears on untreated check disk leaf disks (5-7 days after application).

[1] = tested on: Mycosphaerella graminicola; assay: Mycosphaerella graminicola (Septoria tritici) / liquid culture (Septoria blotch); format: cell-based; settings: Zymoseptoria tritici, 96 h, photometrically 4-5 days after application, read-out: control of Mycosphaerella graminicola
In short: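 Conidia from cryogenic storage mixed into potato dextrose broth, added to test compound in DMSO. Plates incubated at 24° C; growth inhibition read photometrically 4-5 days after application.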

Mycosphaerella arachidis = Mycosphaerella arachidis (Cercospora arachidicola) / liquid culture (early leaf spot); format: cell-based; settings: 96 h, photometrically 4-5 days after application, read-out: control of Mycosphaerella arachidis
Method: (§1) Example B11: Mycosphaerella arachidis (Cercospora arachidicola)/Liquid Culture (Early Leaf Spot) Conidia of the fungus from cryogenic storage are directly mixed into a nutrient broth (potato dextrose broth). After placing a DMSO solution of test compound into a microtiter plate (96-well format), the nutrient broth containing the fungal spores is added. The test plates are incubated at 24° C. and the inhibition of growth is determined photometrically 4-5 days after application.

Monographella nivalis = Monographella nivalis (Microdochium nivale) / liquid culture (foot rot cereals); format: cell-based; settings: 96 h, photometrically 4-5 days after application, read-out: control of Monographella nivalis
Method: as §1, with “B10: Monographella nivalis (Microdochium nivale)/Liquid” for “B11: Mycosphaerella arachidis (Cercospora arachidicola)/Liquid”, “(Foot Rot Cereals)” for “(Early Leaf Spot)”

Glomerella lagenarium = Glomerella lagenarium (Colletotrichum lagenarium) / liquid culture (anthracnose); format: cell-based; settings: Colletotrichum orbiculare, 72 h, photometrically 3-4 days after application, read-out: control of Glomerella lagenarium
Method: as §1, with “B5: Glomerella Lagenarium (Colletotrichum Lagenarium)/Liquid” for “B11: Mycosphaerella arachidis (Cercospora arachidicola)/Liquid”, “(Anthracnose)” for “(Early Leaf Spot)”, “measured” for “determined”, “3-4” for “4-5”

SMILES | pest or weed control at 200 ppm (Alternaria solani) [%] | inhibition of growth at 20 ppm [1] [%] | inhibition of growth at 20 ppm (Mycosphaerella arachidis) [%] | inhibition of growth at 20 ppm (Monographella nivalis) [%] | inhibition of growth at 20 ppm (Glomerella lagenarium) [%]
Cn1ncc(C2CN(C(=O)c3cc(-c4ccc(F)cc4F)on3)Cc3ccccc32)c1Cl (centres unmarked) [Compound P-38, [4-(5-chloro-1-methyl-pyrazol-4-yl)-3,4-dihydro-1H-isoquinolin-2-yl]-[5-(2,4-difluorophenyl)isoxazol-3-yl]methanone] | ≥ 80 |  |  |  | 
COC(=O)C1c2ccccc2C(c2cnn(C)c2)CN1C(=O)c1cc(-c2ccc(F)cc2F)on1 (centres unmarked) [Compound P-42, methyl 2-[5-(2,4-difluorophenyl)isoxazole-3-carbonyl]-4-(1-methylpyrazol-4-yl)-3,4-dihydro-1H-isoquinoline-1-carboxylate] | ≥ 80 |  |  |  | 
Cn1ncc(C2CN(C(=O)c3cc(-c4ccc(F)cc4F)on3)Cc3ccccc32)c1F (centres unmarked) [Compound P-52, [5-(2,4-difluorophenyl)isoxazol-3-yl]-[4-(5-fluoro-1-methyl-pyrazol-4-yl)-3,4-dihydro-1H-isoquinolin-2-yl]methanone] | ≥ 80 |  |  |  | 
Cn1cc(C2CN(C(=O)c3nnc(-c4ccc(F)cc4F)o3)Cc3ccccc32)cn1 (centres unmarked) [Compound P-55, [5-(2,4-difluorophenyl)-1,3,4-oxadiazol-2-yl]-[4-(1-methylpyrazol-4-yl)-3,4-dihydro-1H-isoquinolin-2-yl]methanone] | ≥ 80 | ≥ 80 |  |  | 
Cn1cc(C2CN(C(=O)c3nnc(-c4ccc(F)cc4)o3)Cc3ccccc32)cn1 (centres unmarked) [Compound P-56, [5-(4-fluorophenyl)-1,3,4-oxadiazol-2-yl]-[4-(1-methylpyrazol-4-yl)-3,4-dihydro-1H-isoquinolin-2-yl]methanone] | ≥ 80 |  |  |  | 
Cn1cc(C2c3ccccc3CN(C(=O)c3cc(-c4ccc(F)cc4F)on3)C2(C)C)cn1 (centres unmarked) [Compound P-105, [5-(2,4-difluorophenyl)isoxazol-3-yl]-[3,3-dimethyl-4-(1-methylpyrazol-4-yl)-1,4-dihydroisoquinolin-2-yl]methanone] | ≥ 80 |  |  |  | 
Cc1nn(C)c(C)c1C1CN(C(=O)c2cc(-c3ccc(F)cc3F)sn2)Cc2ccccc21 (centres unmarked) [Compound P-115, [5-(2,4-difluorophenyl)isothiazol-3-yl]-[4-(1,3,5-trimethylpyrazol-4-yl)-3,4-dihydro-1H-isoquinolin-2-yl]methanone] | ≥ 80 | ≥ 80 |  |  | 
Cc1nn(C)c(C)c1C1CN(C(=O)c2cc(-c3ccc(F)cc3)on2)Cc2ccccc21 (centres unmarked) [Compound P-118, [5-(4-fluorophenyl)isoxazol-3-yl]-[4-(1,3,5-trimethylpyrazol-4-yl)-3,4-dihydro-1H-isoquinolin-2-yl]methanone] | ≥ 80 | ≥ 80 | ≥ 80 |  | 
Cc1nn(C)cc1C1CN(C(=O)c2cc(-c3ccc(F)cc3F)on2)Cc2ccccc21 (centres unmarked) [Compound P-121, [5-(2,4-difluorophenyl)isoxazol-3-yl]-[4-(1,3-dimethylpyrazol-4-yl)-3,4-dihydro-1H-isoquinolin-2-yl]methanone] |  | ≥ 80 | ≥ 80 | ≥ 80 | ≥ 80
Cc1nn(C)c(C)c1C1CN(C(=O)c2cc(-c3ccc(F)cc3F)on2)Cc2ncccc21 (centres unmarked) [Compound P-124, [5-(2,4-difluorophenyl)isoxazol-3-yl]-[5-(1,3,5-trimethylpyrazol-4-yl)-6,8-dihydro-5H-1,7-naphthyridin-7-yl]methanone] | ≥ 80 |  |  |  | 
Cn1cc(C2CN(C(=O)c3nc(-c4ccc(F)cc4F)no3)Cc3ccccc32)cn1 (centres unmarked) [Compound P-127, [3-(2,4-difluorophenyl)-1,2,4-oxadiazol-5-yl]-[4-(1-methylpyrazol-4-yl)-3,4-dihydro-1H-isoquinolin-2-yl]methanone] | ≥ 80 | ≥ 80 |  | ≥ 80 | 
CCn1cc(C2CN(C(=O)c3cc(-c4ccc(F)cc4F)on3)Cc3ccccc32)cn1 (centres unmarked) [Compound P-131, [5-(2,4-difluorophenyl)isoxazol-3-yl]-[4-(1-ethylpyrazol-4-yl)-3,4-dihydro-1H-isoquinolin-2-yl]methanone] | ≥ 80 | ≥ 80 |  |  | 
Cn1cc(C2CN(C(=O)c3cc(-c4ccccc4)on3)Cc3cc(F)ccc32)cn1 (centres unmarked) [Compound P-138, [7-fluoro-4-(1-methylpyrazol-4-yl)-3,4-dihydro-1H-isoquinolin-2-yl]-(5-phenylisoxazol-3-yl)methanone] |  | ≥ 80 | ≥ 80 | ≥ 80 | ≥ 80
Cc1c(C2CN(C(=O)c3cc(-c4ccc(F)cc4F)on3)Cc3ccccc32)cnn1C (centres unmarked) [Compound P-140, [5-(2,4-difluorophenyl)isoxazol-3-yl]-[4-(1,5-dimethylpyrazol-4-yl)-3,4-dihydro-1H-isoquinolin-2-yl]methanone] | ≥ 80 |  |  |  | 
Cn1cc(C2CN(C(=O)c3noc(-c4ccccc4)n3)Cc3ccccc32)cn1 (centres unmarked) [Compound P-146, [4-(1-methylpyrazol-4-yl)-3,4-dihydro-1H-isoquinolin-2-yl]-(5-phenyl-1,2,4-oxadiazol-3-yl)methanone] | ≥ 80 |  |  |  | 
Cc1nn(C)c(C)c1C1CN(C(=O)c2cc(-c3ccccc3)on2)Cc2ccccc21 (centres unmarked) [Compound P-148, (5-phenylisoxazol-3-yl)-[4-(1,3,5-trimethylpyrazol-4-yl)-3,4-dihydro-1H-isoquinolin-2-yl]methanone] | ≥ 80 | ≥ 80 | ≥ 80 |  | 
Cn1cc(C2CN(C(=O)c3nnc(-c4ccccc4)o3)Cc3ccccc32)cn1 (centres unmarked) [Compound P-163, [4-(1-methylpyrazol-4-yl)-3,4-dihydro-1H-isoquinolin-2-yl]-(5-phenyl-1,3,4-oxadiazol-2-yl)methanone] | ≥ 80 |  |  |  | 
Cn1cc(C2CN(C(=O)c3cc(-c4cccc(F)c4)on3)Cc3ccccc32)cn1 (centres unmarked) [Compound P-168, [5-(3-fluorophenyl)isoxazol-3-yl]-[4-(1-methylpyrazol-4-yl)-3,4-dihydro-1H-isoquinolin-2-yl]methanone] | ≥ 80 | ≥ 80 |  |  | 
Cn1cc(C2CN(C(=O)c3cc(C4CCC4)on3)Cc3ccccc32)cn1 (centres unmarked) [Compound P-182, (5-cyclobutylisoxazol-3-yl)-[4-(1-methylpyrazol-4-yl)-3,4-dihydro-1H-isoquinolin-2-yl]methanone] | ≥ 80 | ≥ 80 | ≥ 80 |  | 
Cn1cc(C2CN(C(=O)c3cc(-c4ccccc4)on3)Cc3ccccc32)cn1 (centres unmarked) [Compound P-205, [4-(1-methylpyrazol-4-yl)-3,4-dihydro-1H-isoquinolin-2-yl]-(5-phenylisoxazol-3-yl)methanone] |  | ≥ 80 | ≥ 80 | ≥ 80 | ≥ 80
Cn1cc(C2(C)CN(C(=O)c3nnc(-c4ccc(F)cc4F)s3)Cc3ccccc32)cn1 (centres unmarked) [Compound P-207, [5-(2,4-difluorophenyl)-1,3,4-thiadiazol-2-yl]-[4-methyl-4-(1-methylpyrazol-4-yl)-1,3-dihydroisoquinolin-2-yl]methanone] | ≥ 80 |  |  |  | 
Cn1cc([C@]2(C)CN(C(=O)c3nnc(-c4ccc(F)cc4F)s3)Cc3ccccc32)cn1 [Compound P-208, [5-(2,4-difluorophenyl)-1,3,4-thiadiazol-2-yl]-[(4R)-4-methyl-4-(1-methylpyrazol-4-yl)-1,3-dihydroisoquinolin-2-yl]methanone] | ≥ 80 |  |  |  | 
Cc1c(C2CN(C(=O)c3nnc(-c4ccc(F)cc4F)o3)Cc3ccccc32)cnn1C (centres unmarked) [Compound P-225] | ≥ 80 |  |  |  | 
Cc1c(C2CN(C(=O)c3cc(-c4cccn4C)on3)Cc3ccccc32)cnn1C (centres unmarked) [Compound P-231, [4-(1,5-dimethylpyrazol-4-yl)-3,4-dihydro-1H-isoquinolin-2-yl]-[5-(1-methylpyrrol-2-yl)isoxazol-3-yl]methanone] |  | ≥ 80 | ≥ 80 |  | ≥ 80
Cc1c(C2CN(C(=O)c3nnc(C4CCC4)s3)Cc3ccccc32)cnn1C (centres unmarked) [Compound P-232, (5-cyclobutyl-1,3,4-thiadiazol-2-yl)-[4-(1,5-dimethylpyrazol-4-yl)-3,4-dihydro-1H-isoquinolin-2-yl]methanone] |  | ≥ 80 | ≥ 80 |  | ≥ 80

Source: patent US20250325534A1, “MICROBIOCIDAL TETRAHYDROISOQUINOLINE DERIVATIVES” (SYNGENTA CROP PROTECTION AG, priority 2021, published 2025)
